Results from patent publication US8163909B2, “Substituted hydroxyethyl amine compounds as beta-secretase modulators and methods of use” (Amgen Inc., priority 2007, dated 2012).
Like-named read-outs stand apart in the source and are kept apart here.

Tests used:
[1] = target: Beta Secretase enzyme (BACE) (Homo sapiens, UniProt P56817); test: In vitro enzymatic BACE FRET (fluorescence resonance energy transfer) assay; type: biochemical;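 further: fluorescence read after 1 h with 50 nM quenched peptide substrate spanning the BACE cleavage site, in pH 4.2 acetate buffer containing 10% DMSO and nonionic detergent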
Sequence of Beta Secretase enzyme (BACE) (P56817 46-501): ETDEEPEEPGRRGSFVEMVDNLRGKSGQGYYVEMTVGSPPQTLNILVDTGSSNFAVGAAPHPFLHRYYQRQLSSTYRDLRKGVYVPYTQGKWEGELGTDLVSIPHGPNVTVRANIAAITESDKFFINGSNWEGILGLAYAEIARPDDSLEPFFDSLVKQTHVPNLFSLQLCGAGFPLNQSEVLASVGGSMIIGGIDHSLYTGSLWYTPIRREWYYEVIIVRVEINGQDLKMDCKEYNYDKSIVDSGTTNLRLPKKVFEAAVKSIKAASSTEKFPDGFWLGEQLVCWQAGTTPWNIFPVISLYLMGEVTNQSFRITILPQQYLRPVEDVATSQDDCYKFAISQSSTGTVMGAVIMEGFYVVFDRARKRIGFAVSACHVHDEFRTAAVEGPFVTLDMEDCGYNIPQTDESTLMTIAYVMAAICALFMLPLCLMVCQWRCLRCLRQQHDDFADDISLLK

[2] = system: Aβ40 in conditioned medium of cells stably expressing Amyloid Precursor Protein (APP); test: In vitro BACE cell-based assay (Aβ40 in conditioned medium, sandwich ELISA);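 further: compounds added as a dilution series, secreted peptide quantified by europium time-resolved fluorescence readout, potency fitted from percent of control versus compound concentration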
CYP3A4 (CYP3A) = CYP3A4 (CYP3A) (Homo sapiens, UniProt P08684); test: in vitro; settings: microsomes, pH 7.4;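 further: inhibition of CYP3A-mediated 1-hydroxymidazolam formation after 10 min incubation with NADPH, quantified by HPLC MS relative to metabolite produced without test compound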
Sequence of CYP3A4 (CYP3A) (P08684 2-503): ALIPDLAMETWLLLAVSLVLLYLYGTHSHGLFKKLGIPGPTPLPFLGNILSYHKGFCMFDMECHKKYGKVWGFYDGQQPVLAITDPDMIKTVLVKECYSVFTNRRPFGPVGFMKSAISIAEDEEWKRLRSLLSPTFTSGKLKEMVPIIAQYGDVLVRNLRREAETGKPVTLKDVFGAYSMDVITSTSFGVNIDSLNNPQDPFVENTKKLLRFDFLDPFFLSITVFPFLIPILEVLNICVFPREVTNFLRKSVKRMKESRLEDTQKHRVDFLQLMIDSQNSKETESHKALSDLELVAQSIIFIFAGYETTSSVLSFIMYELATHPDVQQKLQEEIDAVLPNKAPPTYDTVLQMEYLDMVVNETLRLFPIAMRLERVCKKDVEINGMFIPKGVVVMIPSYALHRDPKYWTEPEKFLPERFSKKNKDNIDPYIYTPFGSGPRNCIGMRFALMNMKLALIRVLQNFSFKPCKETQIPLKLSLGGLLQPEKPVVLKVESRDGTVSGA

[3] = Microsomal stability assay, rat liver microsomes;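 further: rat liver microsomes (0.25 mg/mL) with about 1 µM compound plus 1 mM NADPH, pH 7.4, 37 °C for 30 min, parent left measured by LC-MS/MS against 0 min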
[4] = Microsomal stability assay, human liver microsomes;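 further: pooled human liver microsomes at 0.25 mg/mL with 1 µM compound and NADPH at 37 °C, pH 7.4, for 30 min, unchanged parent quantified by LC-MS/MS against the 0 min sample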
CYP2D6 = CYP2D6 (Homo sapiens, UniProt P10635); test: CYP2D6 inhibition assay (bufuralol, pooled human liver microsomes)
Sequence of CYP2D6 (P10635 whole entry): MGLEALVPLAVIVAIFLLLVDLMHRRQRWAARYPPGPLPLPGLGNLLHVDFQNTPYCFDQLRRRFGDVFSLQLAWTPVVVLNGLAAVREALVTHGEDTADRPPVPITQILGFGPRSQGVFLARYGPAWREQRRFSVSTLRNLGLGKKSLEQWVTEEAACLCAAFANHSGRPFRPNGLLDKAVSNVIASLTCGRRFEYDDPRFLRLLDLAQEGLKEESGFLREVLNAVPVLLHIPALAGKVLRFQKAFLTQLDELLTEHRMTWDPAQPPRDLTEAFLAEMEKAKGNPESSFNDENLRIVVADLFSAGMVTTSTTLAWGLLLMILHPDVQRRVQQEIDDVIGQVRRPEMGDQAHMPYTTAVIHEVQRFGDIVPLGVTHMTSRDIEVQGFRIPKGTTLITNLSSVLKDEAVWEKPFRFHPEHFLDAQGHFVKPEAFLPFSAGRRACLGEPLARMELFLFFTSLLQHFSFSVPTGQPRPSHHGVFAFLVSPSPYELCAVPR

[5] = read-out: BACE1 FRET assay (IC50)
[6] = Homo sapiens, HEK293, HEK cells, read-out: HEK cell assay (IC50)
[7] = BACE enzyme assay, IC50's in uM, read-out: BACE1 FRET assay
[8] = Homo sapiens, HEK293, HEK cell-based assay, IC50's in uM, read-out: HEK cell assay
[9] = 2D6 IC50 (uM), CYP enzyme inhibition
[10] = 2D6 IC50, CYP enzyme inhibition
[11] = BACE enzyme assay, read-out: BACE1 FRET assay
[12] = Homo sapiens, HEK293, HEK cells, read-out: HEK cell assay
[13] = BACE enzyme assay IC50, read-out: BACE1 FRET assay
[14] = Homo sapiens, HEK293, HEK cell-based assay IC50, read-out: HEK cell assay
[15] = 2D6 IC50 (uM), CYP2D6 inhibition

| SMILES | IC50 (CYP3A4 (CYP3A)) | RLM ([3]; rat liver microsomes) | HLM ([4]; human liver microsomes) | IC50 [1, 7] | IC50 [2, 8] | RLM ([3]; rat liver microsomal data) | HLM ([4]; human liver microsomal data) | IC50 (CYP2D6; [9]) | other results |
| --- | --- | --- | --- | --- | --- | --- | --- | --- | --- |
| COCC(=O)N[C@@H](Cc1cc(F)cc(F)c1)[C@H](O)CN[C@H]1CC2(CCC2)Oc2c1cc(CC(C)(C)C)nc2Nc1ccccc1 [compound 599] | 6400 nM | 125 µL/min/mg | 120 µL/min/mg |  |  |  |  |  | IC50 [1, 5]: 0.018 µM; IC50 [2, 6]: 0.395 µM; IC50 (CYP2D6; 2D6 IC50, CYP2D6 inhibition): ≥ 27 µM |
| C#Cc1cccc(C[C@H](NC(=O)C(OC)OC)[C@H](O)CN[C@H]2CC3(CCC3)Oc3ncc(CC(C)(F)F)cc32)c1 [compound 830] | 100 nM |  |  | 0.007 µM | 0.023 µM | 35 µL/min/mg | 28 µL/min/mg | 1.3 µM |  |
| CO[C@H](C)C(=O)N[C@@H](Cc1cncs1)[C@H](O)CN[C@H]1CC2(CCC2)Oc2ncc([C@@H]3CC3(C)C)cc21 [compound 794] | 500 nM |  |  | 0.005 µM | 0.009 µM | 132 µL/min/mg | 205 µL/min/mg | 9.8 µM |  |
| C#Cc1cc(F)cc(C[C@H](NC(=O)COC)[C@H](O)CN[C@H]2CC3(CCC3)Oc3ncc(CC(C)C)cc32)c1 [Example 856, N-((1S,2R)-1-(3-ethynyl-5-fluorobenzyl)-2-hydroxy-3-(((4′S)-6′-(2-methylpropyl)-3′,4′-dihydrospiro[cyclobutane-1,2′-pyrano[2,3-b]pyridin]-4′-yl)amino)propyl)-2-methoxyacetamide] | 150 nM |  |  | 0.002 µM |  | 78 µL/min/mg | 63 µL/min/mg |  | IC50 ([2]; Homo sapiens, HEK293, cell-based assay, HEK cells, IC50's in uM, read-out: HEK cell assay): 0.009 µM; IC50 (CYP2D6; [10]): 1 µM |
| COCC(=O)N[C@@H](Cc1ccc2c(c1)OCO2)[C@H](O)CN[C@H]1CC2(CCC2)Oc2ccc(C[C@@H](C)F)cc21 [compound 498] | 500 nM |  |  |  |  | 206 µL/min/mg | 119 µL/min/mg | 0.7 µM | IC50 [1, 11]: 0.268 µM; IC50 ([2]; HEK cells, read-out: HEK cell assay): 0.377 µM |
| COCC(=O)N[C@@H](Cc1ccc(F)cc1)[C@H](O)CN[C@@H]1CC2(CCC2)Oc2c1cc(CC(C)(C)C)nc2C#N [compound 492] | 400 nM |  |  |  |  | 190 µL/min/mg | 94 µL/min/mg | 8.2 µM | IC50 [1, 11]: 5.04 µM; IC50 [2, 12]: 0.462 µM |
| CO[C@H](C)C(=O)N[C@@H](Cc1cc(F)cc(F)c1)[C@H](O)CN[C@H]1CC2(CCC2)Oc2c1cc(CC(C)(C)C)nc2-n1ccnc1 [compound 495] | 100 nM |  |  |  |  | 62 µL/min/mg | 41 µL/min/mg | 2 µM | IC50 [1, 11]: 0.02 µM; IC50 [2, 12]: 0.08 µM |
| COCC(=O)N[C@@H](Cc1cccc(-c2ncco2)c1)[C@H](O)CN[C@H]1CC2(CCC2)Oc2ncc(CC(C)C)cc21 [compound 804, N-((1S,2R)-2-hydroxy-3-(((4′S)-6′-(2-methylpropyl)-3′,4′-dihydrospiro[cyclobutane-1,2′-pyrano[2,3-b]pyridin]-4′-yl)amino)-1-(3-(1,3-oxazol-2-yl)benzyl)propyl)-2-methoxyacetamide] | 200 nM |  |  | 0.009 µM | 0.03 µM | 43 µL/min/mg | 61 µL/min/mg | 2.5 µM |  |
| CC(=O)N[C@@H](Cc1cc2c(c(-c3ccncc3)c1)OCO2)[C@H](O)CN[C@H]1CC2(CCC2)Oc2ncc(CC(C)(C)C)cc21 [compound 645] | 100 nM | 62 µL/min/mg | 451 µL/min/mg |  |  |  |  |  | IC50 [1, 5]: 0.441 µM; IC50 [2, 6]: 0.406 µM; IC50 (CYP2D6; 2D6 IC50, CYP2D6 inhibition): 0.3 µM |
| COCC(=O)N[C@@H](Cc1cccc(-c2nccs2)c1)[C@H](O)CN[C@@H]1C[C@@]2(CCOC2)Oc2ncc(CC(C)(C)C)cc21 [compound 827, N-((1S,2R)-3-(((3S,4′R)-6′-(2,2-dimethylpropyl)-3′,4,4′,5-tetrahydrospiro[furan-3,2′-pyrano[2,3-b]pyridin]-4′-yl)amino)-2-hydroxy-1-(3-(1,3-thiazol-2-yl)benzyl)propyl)-2-methoxyacetamide] | 500 nM |  |  | 0.006 µM | 0.007 µM | 197 µL/min/mg | 97 µL/min/mg | 2.1 µM |  |
| C#Cc1cccc(C[C@H](NC(=O)COC)[C@H](O)CN[C@H]2CC3(CCC3)Oc3ncc(CC)cc32)c1 [compound 842] | 200 nM |  |  | 0.026 µM | 0.065 µM | 57 µL/min/mg | 55 µL/min/mg | 4.9 µM |  |
| COCC(=O)N[C@@H](Cc1cccc(-c2ncc(C)s2)c1)[C@H](O)CN[C@H]1CC2(CCC2)Oc2ncc(CC(C)(C)C)cc21 [compound 759, N-((1S,2R)-3-(((4′S)-6′-(2,2-dimethylpropyl)-3′,4′-dihydrospiro[cyclobutane-1,2′-pyrano[2,3-b]pyridin]-4′-yl)amino)-2-hydroxy-1-(3-(5-methyl-1,3-thiazol-2-yl)benzyl)propyl)-2-methoxyacetamide] | 300 nM |  |  | 0.021 µM | 0.071 µM | 399 µL/min/mg | 436 µL/min/mg | 1.5 µM |  |
| CC(=O)N[C@@H](Cc1cccc(F)c1)[C@H](O)CN[C@H]1CC2(CCC2)Oc2c(-c3ccncc3)cc(Cl)cc21 [compound 595] | 100 nM | 736 µL/min/mg | 147 µL/min/mg |  |  |  |  |  | IC50 [1, 5]: 0.077 µM; IC50 [2, 6]: 0.051 µM; IC50 (CYP2D6; 2D6 IC50, CYP2D6 inhibition): 0.5 µM |
| CC(=O)N[C@@H](Cc1cc(Br)c2c(c1)OCO2)[C@H](O)CN[C@H]1CC2(CCC2)Oc2ncc(CC(C)(C)F)cc21 [compound 624] | 160 nM | 150 µL/min/mg | 48 µL/min/mg |  |  |  |  |  | IC50 [1, 5]: 0.2 µM; IC50 [2, 6]: 0.081 µM; IC50 (CYP2D6; 2D6 IC50, CYP2D6 inhibition): 1.2 µM |
| Cc1ccc(CN2CCO[C@@H](C(=O)N[C@@H](Cc3ccc(F)cc3)[C@H](O)CN[C@H]3CC4(CCC4)Oc4ncc(CC(C)(C)C)cc43)C2)cc1 [compound 709] | 300 nM | 375 µL/min/mg | 614 µL/min/mg |  |  |  |  |  | IC50 [1, 13]: 0.028 µM; IC50 [2, 14]: 0.038 µM; IC50 (CYP2D6; [15]): 3.7 µM |
| CC(C)(C)Cc1cnc2c(c1)[C@@H](NC[C@@H](O)[C@H](Cc1ccc(F)cc1)NC(=O)[C@H]1CN(Cc3cscn3)CCO1)CC1(CCC1)O2 [compound 774] | 200 nM |  |  | 0.017 µM | 0.006 µM | 57 µL/min/mg | 111 µL/min/mg | 5.3 µM |  |
| COCC(=O)N[C@@H](Cc1ccc2c(c1)OCO2)[C@H](O)CN[C@H]1CC2(CCC2)Oc2ncc([C@H]3CC3(C)C)cc21 [compound 576] | 100 nM | 209 µL/min/mg | 31 µL/min/mg |  |  |  |  |  | IC50 [1, 5]: 0.328 µM; IC50 [2, 6]: 0.249 µM; IC50 (CYP2D6; 2D6 IC50, CYP2D6 inhibition): 2.7 µM |
| CC(=O)N[C@@H](Cc1cc(F)cc(-c2ccncc2)c1)[C@H](O)CN[C@H]1CC2(CCC2)Oc2ccc(CC(C)(C)C)cc21 [Example 433, N-((2S,3R)-4-((S)-2,2-spirocyclobutyl-6-neopentyl-3,4-dihydro-2H-chromen-4-ylamino)-1-(3-fluoro-5-(pyridin-4-yl)phenyl)-3-hydroxybutan-2-yl)acetamide] | 1100 nM | 590 µL/min/mg | 492 µL/min/mg |  |  |  |  |  | IC50 [1, 5]: 0.021 µM; IC50 [2, 6]: 0.038 µM; IC50 (CYP2D6; 2D6 IC50, CYP2D6 inhibition): 0.2 µM |
| CO[C@H](C)C(=O)N[C@@H](Cc1cc(F)cc(-c2nccs2)c1)[C@H](O)CN[C@H]1CC2(CCC2)Oc2ncc(CC(C)(C)C)cc21 [compound 738, (2R)-N-((1S,2R)-3-(((4′S)-6′-(2,2-dimethylpropyl)-3′,4′-dihydrospiro[cyclobutane-1,2′-pyrano[2,3-b]pyridin]-4′-yl)amino)-1-(3-fluoro-5-(1,3-thiazol-2-yl)benzyl)-2-hydroxypropyl)-2-methoxypropanamide] | ≤ 30 nM | 59 µL/min/mg | 50 µL/min/mg |  |  |  |  |  | IC50 [1, 13]: 0.008 µM; IC50 [2, 14]: 0.01 µM; IC50 (CYP2D6; [15]): 0.6 µM |
| CO[C@H](C)C(=O)N[C@@H](Cc1cccc(F)c1)[C@H](O)CN[C@@H]1CC2(CCC2)Oc2c1cc(CC(C)(C)C)nc2-n1ccnc1 [compound 501] | 100 nM |  |  |  |  | 175 µL/min/mg | 86 µL/min/mg | 2.8 µM | IC50 [1, 11]: 5.3 µM; IC50 [2, 12]: > 10 µM |
| COCC(=O)N[C@@H](Cc1cccc(C#N)c1)[C@H](O)CN[C@H]1CC2(CC(F)(F)C2)Oc2ncc(CC(C)(C)C)cc21 [compound 470] | 1100 nM |  |  |  |  | 560 µL/min/mg | 579 µL/min/mg |  | IC50 ([1]; Table 2, read-out: BACE1 FRET assay): 0.004 µM; IC50 ([2]; Homo sapiens, HEK293, Table 2, HEK cells, read-out: HEK cell assay): 0.014 µM; IC50 (CYP2D6; [10]): 5.8 µM |
| COC(OC)C(=O)N[C@@H](Cc1cccc(C#N)c1)[C@H](O)CN[C@H]1CC2(CCC2)Oc2ncc(CC(C)(C)C)cc21 [compound 798] | 500 nM |  |  | 0.006 µM | 0.005 µM | 423 µL/min/mg | 468 µL/min/mg | 4.7 µM |  |
| CN1CCO[C@@H](C(=O)N[C@@H](Cc2ccc(F)cc2)[C@H](O)CN[C@H]2CC3(CCC3)Oc3ncc(CC(C)(C)C)cc32)C1 [compound 739] | 800 nM | 239 µL/min/mg | 266 µL/min/mg |  |  |  |  |  | IC50 [1, 13]: 0.064 µM; IC50 [2, 14]: 0.008 µM; IC50 (CYP2D6; [15]): 6.7 µM |
